Where two headings read alike, the source gives them in different places. Non-standard residues stand in square brackets, D forms with d. Residues, ends and D or L forms follow the SMILES beside them. *: point of attachment. DOTA = O=C(O)CN1CCN(CC(=O)O)CCN(CC(=O)*)CCN(CC(=O)O)CC1; 1Nal = N[C@@H](Cc1cccc2ccccc12)C(=O)O; PEG5 = NCCOCCOCCOCCOCCOCCC(=O)O; NMeNle = CCCC[C@H](NC)C(=O)O; PEG4 = NCCOCCOCCOCCOCCC(=O)O

The format of series [1] is physicochemical. To be noted: pH 7.4. Here is the method: Lipophilicity (depicted as n-octanol-phosphate-buffered saline solution (PBS, pH = 7.4) distribution coefficient, logD7.4) of ^177Lu-labeled minigastrin analogs was evaluated as previously published.
The target in the next series is T1, CCK-2R (Rattus norvegicus, UniProt P30553).
T1 construct: endogenous in cells; host or cells: AR42J cells
T1 sequence (P30553 1-452): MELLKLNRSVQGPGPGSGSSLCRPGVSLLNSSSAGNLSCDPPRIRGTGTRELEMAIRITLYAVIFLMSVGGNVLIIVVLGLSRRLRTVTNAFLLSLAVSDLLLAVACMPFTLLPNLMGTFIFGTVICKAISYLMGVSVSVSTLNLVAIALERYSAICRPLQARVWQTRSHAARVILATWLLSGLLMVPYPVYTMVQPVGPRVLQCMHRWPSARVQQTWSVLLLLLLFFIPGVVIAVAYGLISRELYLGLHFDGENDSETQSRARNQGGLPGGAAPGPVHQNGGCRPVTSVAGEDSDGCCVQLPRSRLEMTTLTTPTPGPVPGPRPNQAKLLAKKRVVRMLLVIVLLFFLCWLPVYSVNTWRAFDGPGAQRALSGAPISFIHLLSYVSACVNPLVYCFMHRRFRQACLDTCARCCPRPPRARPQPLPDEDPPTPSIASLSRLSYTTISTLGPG
In words: Competitive binding (IC50) on AR42J cells against [177Lu]Lu-DOTA-PP-F11N. To be noted: AR42J cells, 3 h. Here is the method:
IC50 values of all compounds were determined according to a previously published procedure. In brief, competitive binding studies were performed via co-incubation of increasing concentrations of the peptide of interest (10^−10 to 10^–4 M, in triplicate) together with the reference compound [^177Lu]Lu-DOTA-PP-F11N (0.3 pmol/well) on AR42J cells (2 × 10^5 cells per 1 mL/well) at 37 °C for 3 h. Table S1. CCK-2R affinity and lipophilicity data of the compounds evaluated. Affinity data were determined on AR42J cells (2.0 x 10^5 cells/well/mL) and [^177Lu]Lu-DOTA-PP-F11N (0.3 pmol/well) as radiolabeled reference (3 h, 37°C, RPMI 1640, 5 mM L-Gln, 5 mL non-essential amino acids (100x), 10% FCS + 5% BSA (v/v)).

The next series deals with A431-CCK-2R tumor. To be noted: mouse, in vivo, 1 h; cited from earlier work.
Setting [2] is: [177Lu]Lu-DOTA-PP-F11N as reference, 37 °C, values in text, read-out: IC50 (CCK-2R affinity).

In the case of `CCCC[C@@H](C(=O)N[C@@H](CC(=O)O)C(=O)N[C@@H](Cc1cccc2ccccc12)C(N)=O)N(C)C(=O)[C@H](Cc1c[nH]c2ccccc12)NC(=O)CCOCCOCCOCCOCCOCCNC(=O)CN1CCN(CC(=O)O)CCN(CC(=O)O)CCN(CC(=O)O)CC1` [[^nat/177Lu]Lu-DOTA-CCK-63, metal not drawn] ({DOTA-PEG5}-W[NMeNle]D[1Nal]-NH2), in series [1], the logD (as a rule, lipophilicity at a set pH, counting ionised and neutral species) is -2.13 ± 0.05. Moreover, on CCK-2R (setting [2]), the IC50 – broadly, the concentration that inhibits the measured activity by half – turned out to be 8.8 ± 1.3 nM.

Take `CCCC[C@@H](C(=O)N[C@@H](CC(=O)O)C(=O)N[C@@H](Cc1cccc2ccccc12)C(N)=O)N(C)C(=O)[C@H](Cc1c[nH]c2ccccc12)NC(=O)CCOCCOCCOCCOCCNC(=O)CN1CCN(CC(=O)O)CCN(CC(=O)O)CCN(CC(=O)O)CC1` [[^nat/177Lu]Lu-DOTA-CCK-64, metal not drawn] ({DOTA-PEG4}-W[NMeNle]D[1Nal]-NH2): the logD in series [1] is -2.21 ± 0.07. Besides, the IC50 at CCK-2R (2.0 x 10^5 cells/well/mL, [177Lu]Lu-DOTA-PP-F11N 0.3 pmol/well as reference, 37°C, natLu-labeled DOTA peptides, tetrapeptides unlabeled, read-out: IC50) worked out at 7.64 ± 0.86 nM; on CCK-2R (setting [2]), 7.6 ± 0.9 nM.

Regarding `CCCC[C@@H](C(=O)N[C@@H](CC(=O)O)C(=O)N[C@@H](Cc1cccc2ccccc12)C(N)=O)N(C)C(=O)[C@H](Cc1c[nH]c2ccccc12)NC(=O)CNC(=O)[C@H](Cc1ccc(O)cc1)NC(=O)[C@H](C)NC(=O)[C@@H](CCC(=O)O)NC(=O)CN1CCN(CC(=O)O)CCN(CC(=O)O)CCN(CC(=O)O)CC1` [[^natLu]Lu-DOTA-MGS5, DOTA-D-Glu-Ala-Tyr-Gly-Trp-(N-Me)Nle-Asp-1-Nal-NH2, metal not drawn, reference compound], the logD7.4 entry in series [1] is “− 2.21 ± 0.08”. Moreover, at CCK-2R (setting [2]), the half-maximal inhibitory concentration (IC50) stood at 5.2 ± 0.8 nM.

On to “DOTA-D-Glu-Ala-Tyr-Gly-Trp-(N-Me)Nle-Asp-1-Nal-NH2 [[^68 Ga]Ga-DOTA-MGS5]”, for which, in the series with A431-CCK-2R tumor, the “activity levels in the tumor” value is given as 23.3 ± 4.7 %ID/g and the “activity uptake in the kidneys” value was 5.7 ± 1.4 %ID/g.
